What was measured:
[1] = tested on: S. aureus ATCC 29213; test: Antibacterial activity (MIC) against S. aureus; assay type: cell-based; details: Staphylococcus aureus, ATCC29213; read-out: MIC (μg/mL) S. aureus ATCC 29213
Excerpt: (§1) The antibacterial activity of thiol mediated/activated prodrugs of SO2 i.e. 2,4-dinitrophenylsulfonamide related compounds against the gram positive pathogenic bacteria selected from the group S. aureus, E. feacalis is given herein below Table 2a.

[2] = tested on: E. feacalis ATCC 29212; test: Antibacterial activity (MIC) against E. feacalis; assay type: cell-based; details: Enterococcus faecalis, ATCC29212; read-out: MIC (μg/mL) E. feacalis ATCC 29212
Excerpt: as §1

[3] = tested on: Mycobacterium tuberculosis H37Rv strain; test: Antimycobacterial activity assay (MIC, 7H11 agar); assay type: cell-based; details: Mycobacterium tuberculosis, H37RV, Mtb H37Rv
[4] = Pararosaniline-based colorimetric assay for sulfur dioxide; assay type: physicochemical; details: detected with pararosaniline-based colorimetric assay; 10 equiv cysteine, pH 7.4
[5] = Kinetics of thiol-mediated decomposition of compound (7), HPLC and ion chromatography; assay type: physicochemical; details: curve fitting, FIG. 3
Protocol: FIG. 3 depicts kinetics of decomposition of compound (7) to produce sulfur dioxide and 2-hydroxyethylthio-2,4-dinitrobenzene (7y), where disappearance of compound (7) and appearance of (7y) was followed by HPLC analysis. Production of sulfite was monitored by ion chromatography analysis. Curve fitting afforded first order rate constant for: appearance of (7y) as 0.011 min^−1; and appearance of sulfite as 0.014 min^−1.
Alternatively, a detailed kinetic analysis of thiol-mediated decomposition and sulfite generation from compound (7) is represented in FIG. 1b, wherein compound (7) decomposed to simultaneously produce sulfur dioxide, and by-products like 4-methoxyaniline (7x) and 2-hydroxyethylthio-2,4-dinitrobenzene (7y). Further the rate determining step in the said mechanism was the step of protonation (either through proton transfer or addition of proton).

[6] = buffer, 100 µM, pH 7.4
[7] = Table 4; values are for the amine without a DNs group; cited from earlier work
[8] = Cysteine-activated sulfur dioxide release, ion chromatography analysis of sulfite

COc1ccc(NS(=O)(=O)c2ccc([N+](=O)[O-])cc2[N+](=O)[O-])cc1 [Compound 7, N-(4-methoxyphenyl) 2,4-dinitrophenylsulfonamide]
MIC [1]: > 16 µg/mL
MIC [2]: > 16 µg/mL
MIC ([3]; 672 h, Table 3, inhibit 99% of bacterial growth): ≤ 25 µg/mL
MIC ([3]; Table 2b): 4.4 µM
MIC ([3]; Table 2b, inhibit 99% of bacterial growth): 1.56 µg/mL
MIC ([3]; Table 3): 4.4 µM
MIC ([3]; Table 3, inhibit 99% of bacterial growth): 1.56 µg/mL
SO2 source [4]: yes
first order rate constant for appearance of (7y) ([5]; HPLC analysis): 0.011 min⁻¹
first order rate constant for appearance of sulfite ([5]; ion chromatography analysis): 0.014 min⁻¹
t1/2 (min) of SO2 generation [6]: 12 min
pKaH [7]: 5.29
SO2 yield, 5 min ([8]; 5 min after treatment of compound (100 1M) with 10 equiv of cysteine in pH 7.4 phosphate buffer): 39 µM
SO2 yield, 30 min ([8]; 30 min after treatment of compound (100 1M) with 10 equiv of cysteine in pH 7.4 phosphate buffer): 80 µM
SO2 yield, 30 min ([8]; Table 3, 30 min after treatment of compound (100 μM) with 10 equiv of cysteine in pH 7.4 phosphate buffer): 79.5 µM
K (min−1), rate of sulfite release ([8]; compound (100 μM), cysteine (10 equiv), pH 7.4 phosphate buffer (20 mM)): 0.0575 min⁻¹
Max SO2 yield ([8]; sum of sulfite and sulfate, compound 100 μM, cysteine 10 equiv, pH 7.4): 97 µM

Source: patent US9079870B2, “Thiol mediated/activated prodrugs of sulfur dioxide (SO2) having anti-bacterial activity” (priority 2012, dated 2015)
